# Data published in PMC5218480 (PLoS ONE, 2017).
# Test system: MV-4-11 cells
# Experiment: Gene expression microarray analysis (Affymetrix PrimeView) and GSEA
# Format: cell-based, human
# Design: RFU PODN (11730768_x_at) / Fold change /veh PODN (11730768_x_at) / RFU LINC00158 (11744669_a_at) / Fold change /veh LINC00158 (11744669_a_at) / RFU DUSP10 (11751237_a_at) / Fold change /veh DUSP10 (11751237_a_at) / RFU ID3 (11757404_x_at) / Fold change /veh ID3 (11757404_x_at) / RFU PLEKHG5 (11737974_s_at) / Fold change /veh PLEKHG5 (11737974_s_at) / RFU LRRC4B (11730491_at) / Fold change /veh LRRC4B (11730491_at) / RFU GIMAP4 (11747438_a_at) / Fold change /veh GIMAP4 (11747438_a_at) / RFU KRT8 (11758183_x_at) / Fold change /veh KRT8 (11758183_x_at) / RFU CNN1 (11734310_a_at) / Fold change /veh CNN1 (11734310_a_at) / RFU VPS37D (11726825_at) / Fold change /veh VPS37D (11726825_at) / RFU C10orf10 (11716522_x_at) / Fold change /veh C10orf10 (11716522_x_at) / RFU KIR2DL2 /// KIR2DL4 /// KIR2DL5A /// KIR2DL5B /// KIR2DS1 /// KIR2DS2 /// KIR2DS3 /// KIR2DS4 /// KIR3DL3 /// KIR3DL3 /// KIR3DS1 (11738374_at) / Fold change /veh KIR2DL2 /// KIR2DL4 /// KIR2DL5A /// KIR2DL5B /// KIR2DS1 /// KIR2DS2 /// KIR2DS3 /// KIR2DS4 /// KIR3DL3 /// KIR3DL3 /// KIR3DS1 (11738374_at) / RFU C1QL1 (11718748_at) / Fold change /veh C1QL1 (11718748_at) / RFU TMPRSS4 (11747572_a_at) / Fold change /veh TMPRSS4 (11747572_a_at) / RFU HAMP (11756126_x_at) / Fold change /veh HAMP (11756126_x_at) / RFU RNFT2 (11725882_a_at) / Fold change /veh RNFT2 (11725882_a_at) / RFU NR4A2 (11747474_a_at) / Fold change /veh NR4A2 (11747474_a_at) / RFU ABCC12 (11746883_a_at) / Fold change /veh ABCC12 (11746883_a_at) / RFU TMEM136 (11760407_x_at) / Fold change /veh TMEM136 (11760407_x_at) / RFU CLDN22 /// WWC2 (11732394_at) / Fold change /veh CLDN22 /// WWC2 (11732394_at) / RFU HLA-DPB1 (11760878_x_at) / Fold change /veh HLA-DPB1 (11760878_x_at) / RFU SPINT1 (11716480_a_at) / Fold change /veh SPINT1 (11716480_a_at) / RFU GAP43 (11754022_s_at) / Fold change /veh GAP43 (11754022_s_at) / RFU A4GNT (11735810_at) / Fold change /veh A4GNT (11735810_at) / RFU PRB3 (11715151_x_at) / Fold change /veh PRB3 (11715151_x_at) / RFU TUBB4B (11761932_at) / Fold change /veh TUBB4B (11761932_at) / RFU CAPN14 (11732068_a_at) / Fold change /veh CAPN14 (11732068_a_at) / RFU TMCC2 (11721928_a_at) / Fold change /veh TMCC2 (11721928_a_at) / RFU IRGQ (11745062_a_at) / Fold change /veh IRGQ (11745062_a_at) / RFU FAM174B (11720279_a_at) / Fold change /veh FAM174B (11720279_a_at) / RFU TMPRSS4 (11748680_a_at) / Fold change /veh TMPRSS4 (11748680_a_at) / RFU FAM212B (11763350_a_at) / Fold change /veh FAM212B (11763350_a_at) / RFU PLEKHG5 (11743358_a_at) / Fold change /veh PLEKHG5 (11743358_a_at) / RFU ZSCAN30 (11745921_a_at) / Fold change /veh ZSCAN30 (11745921_a_at) / RFU CMKLR1 (11741424_a_at) / Fold change /veh CMKLR1 (11741424_a_at) / RFU LOC101060620 /// MAPK8IP1 (11723275_at) / Fold change /veh LOC101060620 /// MAPK8IP1 (11723275_at) / RFU SPTSSB (11747773_x_at) / Fold change /veh SPTSSB (11747773_x_at) / RFU PRSS12 (11739890_at) / Fold change /veh PRSS12 (11739890_at) / RFU BIN1 (11741810_x_at) / Fold change /veh BIN1 (11741810_x_at) / RFU WNT11 (11732464_a_at) / Fold change /veh WNT11 (11732464_a_at) / RFU C10orf10 (11716521_a_at) / Fold change /veh C10orf10 (11716521_a_at) / RFU C5orf56 (11738089_at) / Fold change /veh C5orf56 (11738089_at) / RFU CYB561 (11721691_x_at) / Fold change /veh CYB561 (11721691_x_at) / RFU ANKRD19P (11752326_a_at) / Fold change /veh ANKRD19P (11752326_a_at) / RFU OR2T12 /// OR2T33 /// OR2T8 (11738714_s_at) / Fold change /veh OR2T12 /// OR2T33 /// OR2T8 (11738714_s_at) / RFU VCAN (11748164_a_at) / Fold change /veh VCAN (11748164_a_at) / RFU JSRP1 (11732532_at) / Fold change /veh JSRP1 (11732532_at) / RFU KRTAP10-11 (11738290_x_at) / Fold change /veh KRTAP10-11 (11738290_x_at) / RFU MYO3A (11730013_a_at) / Fold change /veh MYO3A (11730013_a_at) / RFU EBF3 (11725865_a_at) / Fold change /veh EBF3 (11725865_a_at) / RFU CAMK2N1 (11719241_x_at) / Fold change /veh CAMK2N1 (11719241_x_at) / RFU C5orf56 (11738088_a_at) / Fold change /veh C5orf56 (11738088_a_at) / RFU OLFML3 (11715873_a_at) / Fold change /veh OLFML3 (11715873_a_at) / RFU LOC100653217 /// NTM (11731650_a_at) / Fold change /veh LOC100653217 /// NTM (11731650_a_at) / RFU MAPK11 (11762145_a_at) / Fold change /veh MAPK11 (11762145_a_at) / RFU FIZ1 (11724087_x_at) / Fold change /veh FIZ1 (11724087_x_at) / RFU OASL (11726364_x_at) / Fold change /veh OASL (11726364_x_at) / RFU SOX15 (11748057_x_at) / Fold change /veh SOX15 (11748057_x_at) / RFU CD79A (11719716_a_at) / Fold change /veh CD79A (11719716_a_at) / RFU HIST1H1D (11736915_at) / Fold change /veh HIST1H1D (11736915_at) / RFU CASKIN2 (11723855_a_at) / Fold change /veh CASKIN2 (11723855_a_at) / RFU LOC730098 (11760151_x_at) / Fold change /veh LOC730098 (11760151_x_at) / RFU OR4N2 (11742367_at) / Fold change /veh OR4N2 (11742367_at) / RFU PRRT2 (11749266_a_at) / Fold change /veh PRRT2 (11749266_a_at) / RFU SNX32 (11753110_a_at) / Fold change /veh SNX32 (11753110_a_at) / RFU CDHR5 (11726645_a_at) / Fold change /veh CDHR5 (11726645_a_at) / RFU RCAN1 (11760418_a_at) / Fold change /veh RCAN1 (11760418_a_at) / RFU FAM167A (11723789_a_at) / Fold change /veh FAM167A (11723789_a_at) / RFU FAM26E (11764081_at) / Fold change /veh FAM26E (11764081_at) / RFU ISYNA1 (11749810_s_at) / Fold change /veh ISYNA1 (11749810_s_at) / RFU ACY1 (11761880_at) / Fold change /veh ACY1 (11761880_at) / RFU 11764098_at / Fold change /veh 11764098_at / RFU SAMD14 (11745864_x_at) / Fold change /veh SAMD14 (11745864_x_at) / RFU NPB (11741838_a_at) / Fold change /veh NPB (11741838_a_at) / RFU TMPRSS6 (11731388_a_at) / Fold change /veh TMPRSS6 (11731388_a_at) / RFU KRTAP10-2 (11738614_at) / Fold change /veh KRTAP10-2 (11738614_at) / RFU ARHGAP8 /// PRR5-ARHGAP8 (11727945_x_at) / Fold change /veh ARHGAP8 /// PRR5-ARHGAP8 (11727945_x_at) / RFU KRTAP5-7 /// NADSYN1 (11734609_at) / Fold change /veh KRTAP5-7 /// NADSYN1 (11734609_at) / RFU RASL12 (11751679_a_at) / Fold change /veh RASL12 (11751679_a_at) / RFU CDKN2B (11736163_a_at) / Fold change /veh CDKN2B (11736163_a_at) / RFU PRF1 (11729649_at) / Fold change /veh PRF1 (11729649_at) / RFU, ZNF638 /// ZNF638-IT1 / Fold change vs veh, ZNF638 /// ZNF638-IT1 / RFU, PANK3 / Fold change vs veh, PANK3 / RFU, SH3YL1 / Fold change vs veh, SH3YL1 / RFU, ZEB2 / Fold change vs veh, ZEB2 / RFU, NRIP1 / Fold change vs veh, NRIP1 / RFU, PTTG1IP / Fold change vs veh, PTTG1IP / RFU, CAPN2 / Fold change vs veh, CAPN2 / RFU, MED14 / Fold change vs veh, MED14 / RFU, SNORA58 / Fold change vs veh, SNORA58 / RFU, C1orf63 / Fold change vs veh, C1orf63 / RFU, LRRFIP1 / Fold change vs veh, LRRFIP1 / RFU, NDUFAF7 / Fold change vs veh, NDUFAF7 / RFU, SLC12A2 / Fold change vs veh, SLC12A2 / RFU, IBTK / Fold change vs veh, IBTK / RFU, ESF1 / Fold change vs veh, ESF1 / Fold change vs veh, TMEM50B / RFU, TAOK1 / Fold change vs veh, TAOK1 / RFU, ACBD3 / Fold change vs veh, ACBD3 / RFU, TMA16 / Fold change vs veh, TMA16 / RFU, RWDD3 / Fold change vs veh, RWDD3 / RFU, BCAT1 / Fold change vs veh, BCAT1 / RFU, EDEM3 / Fold change vs veh, EDEM3 / RFU, TMEM33 / Fold change vs veh, TMEM33 / RFU, WDR75 / Fold change vs veh, WDR75 / RFU, AHCTF1 / Fold change vs veh, AHCTF1 / RFU, TFRC / Fold change vs veh, TFRC / RFU, ZDHHC17 / Fold change vs veh, ZDHHC17 / RFU, NOM1 / Fold change vs veh, NOM1 / RFU, ARL8B / Fold change vs veh, ARL8B / RFU, ZBTB11 / Fold change vs veh, ZBTB11 / RFU, TAMM41 / Fold change vs veh, TAMM41 / RFU, KIAA1704 /// LOC100996395 / Fold change vs veh, KIAA1704 /// LOC100996395 / RFU, ING1 / Fold change vs veh, ING1 / RFU, TRMT61B / Fold change vs veh, TRMT61B / RFU, FUBP3 / Fold change vs veh, FUBP3 / RFU, TP53 / Fold change vs veh, TP53 / RFU, TNKS2 / Fold change vs veh, TNKS2 / RFU, ZFP14 / Fold change vs veh, ZFP14 / RFU, ACTR2 / Fold change vs veh, ACTR2 / RFU, PPP3R1 / Fold change vs veh, PPP3R1 / RFU, PIK3R1 / Fold change vs veh, PIK3R1 / RFU, HNRNPA1 / Fold change vs veh, HNRNPA1 / RFU, RNF170 / Fold change vs veh, RNF170 / RFU, ZNF28 / Fold change vs veh, ZNF28 / RFU, RNGTT / Fold change vs veh, RNGTT / RFU, OGT / Fold change vs veh, OGT / RFU, BRD1 / Fold change vs veh, BRD1 / RFU, MARS / Fold change vs veh, MARS / RFU, ZNF655 / Fold change vs veh, ZNF655 / RFU, FAHD1 / Fold change vs veh, FAHD1 / RFU, BDP1 / Fold change vs veh, BDP1 / RFU, LRRCC1 / Fold change vs veh, LRRCC1 / RFU, ARID1A / Fold change vs veh, ARID1A / RFU, ZNF146 / Fold change vs veh, ZNF146 / RFU, ZNF330 / Fold change vs veh, ZNF330 / RFU, GPN3 / Fold change vs veh, GPN3 / RFU, C9orf123 / Fold change vs veh, C9orf123 / RFU, N4BP2L2 / Fold change vs veh, N4BP2L2 / RFU, ARFIP1 / Fold change vs veh, ARFIP1 / RFU, FAM179B / Fold change vs veh, FAM179B / RFU, BCL10 / Fold change vs veh, BCL10 / RFU, UHRF1BP1L / Fold change vs veh, UHRF1BP1L / RFU, BET1 / Fold change vs veh, BET1 / RFU, CNOT2 / Fold change vs veh, CNOT2 / RFU, ZNF268 / Fold change vs veh, ZNF268 / Fold change vs veh, ZNF507 / RFU, DGCR2 / Fold change vs veh, DGCR2 / RFU, WDSUB1 / Fold change vs veh, WDSUB1 / Fold change vs veh, HSP90B1 /// MIR3652 / RFU, ADSS / Fold change vs veh, ADSS / RFU, GK / Fold change vs veh, GK / RFU, ZNF148 / Fold change vs veh, ZNF148 / RFU, TAF9 / Fold change vs veh, TAF9 / RFU, SLC1A5 / Fold change vs veh, SLC1A5 / RFU, SLMO2 / Fold change vs veh, SLMO2 / RFU, ABCC4 / Fold change vs veh, ABCC4 / RFU, LOC101060439 /// RAP1B / Fold change vs veh, LOC101060439 /// RAP1B / RFU, RFX7 / Fold change vs veh, RFX7 / RFU, GTPBP10 / Fold change vs veh, GTPBP10 / RFU, CNEP1R1 / Fold change vs veh, CNEP1R1 / RFU, BIVM-ERCC5 /// ERCC5 / Fold change vs veh, BIVM-ERCC5 /// ERCC5 / RFU, ILF3 / Fold change vs veh, ILF3 / RFU 11762660_at / Fold change /veh 11762660_at / RFU VCAN (11757783_s_at) / Fold change /veh VCAN (11757783_s_at) / RFU DDX43 (11728927_at) / Fold change /veh DDX43 (11728927_at) / RFU KRT8 (11758188_x_at) / Fold change /veh KRT8 (11758188_x_at) / RFU NKD1 (11759106_at) / Fold change /veh NKD1 (11759106_at) / RFU SRD5A1 (11742802_a_at) / Fold change /veh SRD5A1 (11742802_a_at) / RFU TPSAB1 /// TPSB2 (11721975_s_at) / Fold change /veh TPSAB1 /// TPSB2 (11721975_s_at) / RFU GSTM3 (11746129_a_at) / Fold change /veh GSTM3 (11746129_a_at) / RFU IL23R (11737362_x_at) / Fold change /veh IL23R (11737362_x_at) / RFU TMEM51 (11727254_a_at) / Fold change /veh TMEM51 (11727254_a_at) / RFU PIWIL2 (11732686_x_at) / Fold change /veh PIWIL2 (11732686_x_at) / RFU ORM1 (11744905_x_at) / Fold change /veh ORM1 (11744905_x_at) / RFU CCDC152 (11743942_at) / Fold change /veh CCDC152 (11743942_at) / RFU ECM1 (11717891_a_at) / Fold change /veh ECM1 (11717891_a_at) / RFU IL23R (11748794_a_at) / Fold change /veh IL23R (11748794_a_at) / RFU TNFAIP8L3 (11732012_x_at) / Fold change /veh TNFAIP8L3 (11732012_x_at) / RFU MBOAT4 (11741988_at) / Fold change /veh MBOAT4 (11741988_at) / RFU 11764193_at / Fold change /veh 11764193_at / RFU TMEM53 (11763286_at) / Fold change /veh TMEM53 (11763286_at) / RFU MAGEB2 (11727129_at) / Fold change /veh MAGEB2 (11727129_at) / RFU TMEM200A (11744735_a_at) / Fold change /veh TMEM200A (11744735_a_at) / RFU CCDC152 (11751479_a_at) / Fold change /veh CCDC152 (11751479_a_at) / RFU FAM211A (11726209_a_at) / Fold change /veh FAM211A (11726209_a_at) / RFU RGS16 (11746705_a_at) / Fold change /veh RGS16 (11746705_a_at) / RFU VCAN (11755009_s_at) / Fold change /veh VCAN (11755009_s_at) / RFU RHOB (11743442_s_at) / Fold change /veh RHOB (11743442_s_at) / RFU RGS16 (11720943_a_at) / Fold change /veh RGS16 (11720943_a_at) / RFU RGS16 (11720944_at) / Fold change /veh RGS16 (11720944_at) / RFU, VPS4B / Fold change vs veh, VPS4B / RFU, CREB1 / Fold change vs veh, CREB1 / RFU, DNAJC13 / Fold change vs veh, DNAJC13 / RFU, GNAQ / Fold change vs veh, GNAQ / RFU, CDK5R1 / Fold change vs veh, CDK5R1 / RFU, ZRANB3 / Fold change vs veh, ZRANB3 / RFU, CUL4A / Fold change vs veh, CUL4A / RFU, CCNY / Fold change vs veh, CCNY / RFU, UFL1 / Fold change vs veh, UFL1 / RFU, COG3 / Fold change vs veh, COG3 / RFU, DIAPH2 / Fold change vs veh, DIAPH2 / RFU, SKA2 / Fold change vs veh, SKA2 / RFU, AFF3 / Fold change vs veh, AFF3 / RFU, LMF1 / Fold change vs veh, LMF1 / RFU, IPO11 / Fold change vs veh, IPO11 / RFU, DFFB / Fold change vs veh, DFFB / RFU, FOXP1 / Fold change vs veh, FOXP1 / RFU, CARD8 / Fold change vs veh, CARD8 / RFU, STRN3 / Fold change vs veh, STRN3 / RFU, ADK / Fold change vs veh, ADK / RFU, RASSF2 / Fold change vs veh, RASSF2 / RFU, WIPF1 / Fold change vs veh, WIPF1 / RFU, LARP1B / Fold change vs veh, LARP1B / RFU, RASA1 / Fold change vs veh, RASA1 / RFU, RB1 / Fold change vs veh, RB1 / RFU, PPFIA1 / Fold change vs veh, PPFIA1 / RFU, MAT2A / Fold change vs veh, MAT2A / RFU, CCT5 / Fold change vs veh, CCT5 / RFU, WDR92 / Fold change vs veh, WDR92 / RFU, CUX1 / Fold change vs veh, CUX1 / RFU, TTC7A / Fold change vs veh, TTC7A / RFU, TMEM135 / Fold change vs veh, TMEM135 / RFU, DEPTOR / Fold change vs veh, DEPTOR / RFU, CPM / Fold change vs veh, CPM / RFU, DNAJB6 / Fold change vs veh, DNAJB6 / RFU, CACNA2D3 / Fold change vs veh, CACNA2D3 / RFU, DTX4 / Fold change vs veh, DTX4 / RFU, TFCP2 / Fold change vs veh, TFCP2 / RFU, GMCL1 /// GMCL1P1 / Fold change vs veh, GMCL1 /// GMCL1P1 / RFU, AEBP2 / Fold change vs veh, AEBP2 / RFU, SNHG1 /// SNORD22 /// SNORD25 /// SNORD26 /// SNORD27 /// SNORD28 /// SNORD29 /// SNORD31 / Fold change vs veh, SNHG1 /// SNORD22 /// SNORD25 /// SNORD26 /// SNORD27 /// SNORD28 /// SNORD29 /// SNORD31 / Fold change (Aza/veh), C12orf56 (ProbeSet 11735607_a_at) / Fold change (ACY-1035/veh), C12orf56 (ProbeSet 11735607_a_at) / Fold change (Aza/veh), FGFR1OP (ProbeSet 11751329_s_at) / Fold change (ACY-1035/veh), FGFR1OP (ProbeSet 11751329_s_at) / Fold change (Aza/veh), VPS36 (ProbeSet 11739960_a_at) / Fold change (ACY-1035/veh), VPS36 (ProbeSet 11739960_a_at) / RFU SYPL1 (11715823_x_at) / Fold change /veh SYPL1 (11715823_x_at) / RFU IGFBP7 (11715501_s_at) / Fold change /veh IGFBP7 (11715501_s_at) / RFU REEP3 (11722064_at) / Fold change /veh REEP3 (11722064_at) / RFU IGLL1 (11728026_x_at) / Fold change /veh IGLL1 (11728026_x_at): dose or concentration left out as unconfirmed
# Settings: MV-4-11 cells, 48 hours
smiles,measurement,value
Nc1ncn([C@@H]2O[C@H](CO)[C@@H](O)[C@H]2O)c(=O)n1 [azacitidine],RFU CDKN2B (11736163_a_at),8.51 RFU
